Each structure is given as a SMILES string. Like-named read-outs stand apart in the source and are kept apart here.

This experiment concerns the target Endothelial lipase (EL) (Homo sapiens (Human), UniProt Q9Y5X9). The experiment is described as follows: Endothelial lipase (EL) enzymatic assay with fluorescent substrate A10070 in DMPG vesicles. The format is biochemical. The essentials:
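Compounds were preincubated with enzyme for 30 min at 37° C before FRET-substrate vesicles (A10070 in DMPG, 0.11 mole fraction) were added. Reaction rates were obtained from the 300–900 sec slope of fluorescence at 490/530 nm.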

[1] abbreviates: EL from conditioned media of HT-1080 cells, 30 min preincubation at 37° C.

Sequence of Endothelial lipase (EL) (Q9Y5X9 21-500): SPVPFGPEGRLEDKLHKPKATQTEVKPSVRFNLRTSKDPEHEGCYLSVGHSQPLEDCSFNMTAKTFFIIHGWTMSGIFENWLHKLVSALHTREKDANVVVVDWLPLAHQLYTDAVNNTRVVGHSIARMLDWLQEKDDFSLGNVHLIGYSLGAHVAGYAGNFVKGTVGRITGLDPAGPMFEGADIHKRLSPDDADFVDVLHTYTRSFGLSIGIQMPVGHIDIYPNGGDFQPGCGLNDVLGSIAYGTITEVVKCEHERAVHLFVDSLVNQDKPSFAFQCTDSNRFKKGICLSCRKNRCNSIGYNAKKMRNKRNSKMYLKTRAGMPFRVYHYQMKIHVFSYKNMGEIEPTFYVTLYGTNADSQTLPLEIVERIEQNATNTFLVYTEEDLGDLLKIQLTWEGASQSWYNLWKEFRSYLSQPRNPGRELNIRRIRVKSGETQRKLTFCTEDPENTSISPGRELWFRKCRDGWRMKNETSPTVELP

As for `COCCS(=O)(=O)C(C(=O)NCC(=O)NC1CC1)c1nc2cc(F)c(-c3ccc(NC(=O)OCc4ccccn4)cc3)cc2s1` (stereo not shown) [Example 519, pyridin-2-ylmethyl N-{4-[2-({[(cyclopropyl-carbamoyl)methyl]carbamoyl}(2-methoxyethane-sulfonyl)methyl)-5-fluoro-1,3-benzothiazol-6-yl]phenyl}carbamate], inhibition was half-maximal at 2 nM (IC50).

On to `O=C(CNC(=O)C(c1nc2cc(F)c(-c3ccc(NC(=O)OCc4ccccn4)cc3)cc2s1)S(=O)(=O)CCC(F)(F)F)NC1CC1` (stereo not shown) [Example 520, pyridin-2-ylmethyl N-{4-[2-({[(cyclopropyl-carbamoyl)methyl]carbamoyl}(3,3,3-trifluoropropane-sulfonyl)methyl)-5-fluoro-1,3-benzothiazol-6-yl]phenyl}carbamate], for which the half-inhibitory concentration (IC50) came out at 2 nM.

Take `N#Cc1cccc(COC(=O)Nc2ccc(-c3cc4sc(C(C(=O)NCC(=O)NC5CC5)S(=O)(=O)C5CC5)nc4cc3F)cc2)c1` (stereo not shown) [Example 521, (3-cyanophenyl) methyl N-(4-{2-[(cyclopropane-sulfonyl) ({[(cyclopropyl-carbamoyl)methyl]carbamoyl}methyl]-5-fluoro-1,3-benzothiazol-6-yl}phenyl) carbamate]: the IC50 stood at 3 nM.

For `N#Cc1cccc(COC(=O)Nc2ccc(-c3cc4sc(C(C(=O)NCC(=O)NC5CC5)S(=O)(=O)CCC(F)(F)F)nc4cc3F)cc2)c1` (stereo not shown) [Example 522, (3-cyanophenyl) methyl N-{4-[2-({[(cyclopropyl-carbamoyl)methyl]carbamoyl}(3,3,3-trifluoropropane-sulfonyl)methyl)-5-fluoro-1,3-benzothiazol-6-yl]phenyl} carbamate], it took 1 nM to reach half-maximal inhibition (IC50).

The compound `O=C(CNC(=O)C(c1nc2cc(F)c(-c3ccc(NC(=O)OCc4nccs4)cc3)cc2s1)S(=O)(=O)CCC(F)(F)F)NC1CC1` (stereo not shown) [Example 523, 1,3-thiazol-2-ylmethyl N-{4-[2-({[(cyclopropyl-carbamoyl)methyl]carbamoyl}(3,3,3-trifluoropropane-sulfonyl)methyl)-5-fluoro-1,3-benzothiazol-6-yl]phenyl} carbamate] yielded an IC50 of 6 nM.

`COCCS(=O)(=O)C(C(=O)NCC(=O)NC1CC1)c1nc2cc(F)c(-c3ccc(NC(=O)OCc4nccs4)cc3)cc2s1` (stereo not shown) [Example 524, 1,3-thiazol-2-ylmethyl N-{4-[2-({[(cyclopropyl-carbamoyl)methyl]carbamoyl}(2-methoxyethane-sulfonyl)methyl)-5-fluoro-1,3-benzothiazol-6-yl]phenyl} carbamate]: it took 13 nM to reach half-maximal inhibition (IC50).

In the case of `COCCS(=O)(=O)C(C(=O)NCC(=O)NC1CC1)c1nc2cc(F)c(-c3ccc(NC(=O)OCC4CC4)cc3)cc2s1` (stereo not shown) [Example 525, Cyclopropylmethyl N-{4-[2-({[(cyclopropylcarbamoyl)methyl]carbamoyl}(2-methoxyethanesulfonyl)methyl)-5-fluoro-1,3-benzothiazol-6-yl]phenyl}carbamate], under setting [1], it took 0.5 nM to reach half-maximal inhibition (IC50).

`COCCS(=O)(=O)C(C(=O)NCC(=O)NC1CC1)c1nc2cc(F)c(-c3ccc(NC(=O)OCC(F)(F)F)cc3)cc2s1` (stereo not shown) [Example 526, 2,2,2-trifluoroethyl N-{4-[2-({[(cyclopropyl-carbamoyl)methyl]carbamoyl}(2-methoxyethane-sulfonyl)methyl)-5-fluoro-1,3-benzothiazol-6-yl]phenyl} carbamate] had an IC50 of 1 nM.

`CS(=O)(=O)C(C(=O)NCC(=O)NC1CC1)c1nc2cc(F)c(-c3ccc(NC(=O)OCC4CC4)cc3)cc2s1` (stereo not shown) [Example 527, cyclopropylmethyl N-{4-[2-({[(cyclopropyl-carbamoyl)methyl]carbamoyl}) (methanesulfonyl)methyl)-5-fluoro-1,3-benzothiazol-6-yl]phenyl} carbamate]: the concentration for half-maximal inhibition (IC50) is 9 nM.

Consider `CC(C)S(=O)(=O)C(C(=O)NCC(=O)NC1CC1)c1nc2cc(F)c(-c3ccc(NC(=O)OCC4CC4)cc3)cc2s1` (stereo not shown) [Example 528], for which 1 nM corresponded to half-maximal inhibition (IC50).

In the case of `O=C(CNC(=O)C(c1nc2cc(F)c(-c3ccc(NC(=O)OCC(F)(F)F)cc3)cc2s1)S(=O)(=O)CCC(F)(F)F)NC1CC1` (stereo not shown) [Example 529, 2,2,2-trifluoroethyl N-{4-[2-({[(cyclopropyl-carbamoyl)methyl]carbamoyl}(3,3,3-trifluoropropane-sulfonyl)methyl)-5-fluoro-1,3-benzothiazol-6-yl]phenyl} carbamate], the 50% inhibitory concentration (IC50) came to 2 nM.

`O=C(CNC(=O)C(c1nc2cc(F)c(-c3ccc(NC(=O)OCC4CC4)cc3)cc2s1)S(=O)(=O)C1CC1)NC1CC1` (stereo not shown) [Example 530, cyclopropylmethyl N-(4-{2-[(cyclopropane-sulfonyl) ({[(cyclopropyl-carbamoyl)methyl]carbamoyl})methyl]-5-fluoro-1,3-benzothiazol-6-yl}phenyl) carbamate] came in with a 50% inhibitory concentration (IC50) of 3 nM.

The compound `O=C(CNC(=O)C(c1nc2cc(F)c(-c3ccc(NC(=O)OCC4CC4)cc3)cc2s1)S(=O)(=O)CCC(F)(F)F)NC1CC1` (stereo not shown) [Example 531, cyclopropylmethyl N-{4-[2-({[(cyclopropyl-carbamoyl)methyl]carbamoyl}(3,3,3-trifluoropropane-sulfonyl)methyl)-5-fluoro-1,3-benzothiazol-6-yl]phenyl} carbamate] showed a concentration for half-maximal inhibition (IC50) of 1 nM.

For `COC(=O)Nc1ccccc1-c1cc2sc(C(C(=O)NCC(=O)NC3CC3)S(C)(=O)=O)nc2cc1F` (stereo not shown) [Example 532, Methyl N-{2-[2({[(cyclopropylcarbamoyl)methyl]carbamoyl}(methanesulfonyl)methyl)-5-fluoro-1,3-benzothiazol-6-yl]phenyl}carbamate], it took 110 nM to reach half-maximal inhibition under setting [1] (IC50).

Turning to `COCCOC(=O)Nc1ccc(-c2cc3sc(C(C(=O)NCC(=O)NC4CC4)S(C)(=O)=O)nc3cc2F)cc1` (stereo not shown) [Example 533, 2-methoxyethyl N-{4-[2-({[(cyclopropyl-carbamoyl)methyl]carbamoyl} (methanesulfonyl)methyl)-5-fluoro-1,3-benzothiazol-6-yl]phenyl} carbamate], 3 nM corresponded to half-maximal inhibition (IC50).

Compound `COCCOC(=O)Nc1ccc(-c2cc3sc(C(C(=O)NCC(=O)NC4CC4)S(=O)(=O)CCC(F)(F)F)nc3cc2F)cc1` (stereo not shown) [Example 534, 2-methoxyethyl N-{4-[2-({[(cyclopropyl-carbamoyl)methyl]carbamoyl}(3,3,3-trifluoropropane-sulfonyl)methyl)-5-fluoro-1,3-benzothiazol-6-yl]phenyl} carbamate] displayed a half-maximal inhibitory concentration (IC50) of 2 nM.

`COCCOC(=O)Nc1ccc(-c2cc3sc(C(C(=O)NCC(=O)NC4CC4)S(=O)(=O)CCOC)nc3cc2F)cc1` (stereo not shown) [Example 535, 2-methoxyethyl N-{4-[2-({[(cyclopropyl-carbamoyl)methyl]carbamoyl}(2-methoxyethane-sulfonyl)methyl)-5-fluoro-1,3-benzothiazol-6-yl]phenyl} carbamate]: the IC50 worked out at 4 nM.

In the case of `COCCOC(=O)Nc1ccc(-c2cc3sc(C(C(=O)NCC(=O)NC4CC4)S(=O)(=O)C4CC4)nc3cc2F)cc1` (stereo not shown) [Example 536, 2-methoxyethyl N-(4-{2-[(cyclopropane-sulfonyl) ({[(cyclopropyl-carbamoyl)methyl]carbamoyl})methyl]-5-fluoro-1,3-benzothiazol-6-yl}phenyl) carbamate], it took 2 nM to reach half-maximal inhibition (IC50).

In turn, `COCCS(=O)(=O)C(C(=O)NCC(=O)NC1CC1)c1nc2cc(F)c(-c3ccccc3NC(=O)OC)cc2s1` (stereo not shown) [Example 537, methyl N-{2-[2-({[(cyclopropyl-carbamoyl)methyl]carbamoyl}(2-methoxyethane-sulfonyl)methyl)-5-fluoro-1,3-benzothiazol-6-yl]phenyl} carbamate] returned an IC50 of 92 nM.

`COC(=O)Nc1ccc(-c2cc3sc(C(C(=O)NCC(=O)NC4CC4)S(C)(=O)=O)nc3cc2F)cc1OC` (stereo not shown) [Example 538, Methyl N-{4-[2({[(cyclopropylcarbamoyl)methyl]carbamoyl}(methanesulfonyl)methyl)-5-fluoro-1,3-benzothiazol-6-yl]-2-methoxyphenyl}carbamate] displayed an IC50 under setting [1] of 4.5 nM.

As to `CC(C)OC(=O)Nc1ccc(-c2cc3sc(C(C(=O)NCC(=O)NC4CC4)S(C)(=O)=O)nc3cc2F)cc1` (stereo not shown) [Example 539, propan-2-yl N-{4-[2-({[(cyclopropyl-carbamoyl)methyl]carbamoyl} (methanesulfonyl)methyl)-5-fluoro-1,3-benzothiazol-6-yl]phenyl} carbamate], the IC50 came out at 1 nM.

Compound `CC(C)OC(=O)Nc1ccc(-c2cc3sc(C(C(=O)NCC(=O)NC4CC4)S(=O)(=O)C(C)C)nc3cc2F)cc1` (stereo not shown) [Example 541, propan-2-yl N-{4-[2-({[(cyclopropyl-carbamoyl)methyl]carbamoyl} (propane-2-sulfonyl)methyl)-5-fluoro-1,3-benzothiazol-6-yl]phenyl} carbamate] yielded a 50% inhibitory concentration (IC50) of 2 nM.

`CC(C)OC(=O)Nc1ccc(-c2cc3sc(C(C(=O)NCC(=O)NC4CC4)S(=O)(=O)C4CC4)nc3cc2F)cc1` (stereo not shown) [Example 542, propan-2-yl N-(4-{2-[(cyclopropane-sulfonyl) ({[(cyclopropyl-carbamoyl)methyl]carbamoyl})methyl]-5-fluoro-1,3-benzothiazol-6-yl}phenyl) carbamate] registered an IC50 of 2 nM.

`O=C(CNC(=O)C(c1nc2cc(-c3ccc(NC(=O)OCc4ccccc4)nc3)c(F)cc2s1)S(=O)(=O)CCC(F)(F)F)NC1CC1` (stereo not shown) [Example 543, benzyl N-{5-[2-({[(cyclopropyl-carbamoyl)methyl]carbamoyl}(3,3,3-trifluoropropane-sulfonyl)methyl)-6-fluoro-1,3-benzothiazol-5-yl]pyridin-2-yl} carbamate] displayed an IC50 of 6 nM.

`COC(=O)N(C)c1cccc(-c2ccc3nc(C(C(=O)NCC(=O)NC4CC4)S(C)(=O)=O)sc3c2)c1` (stereo not shown) [Example 544, methyl N-{3-[2-({[(cyclopropyl-carbamoyl)methyl]carbamoyl} (methanesulfonyl)methyl)-1,3-benzothiazol-6-yl]phenyl}-N-methylcarbamate] returned a half-inhibitory concentration (IC50) of 19 nM.

(Values after patent US10173991B2, “Sulfone amide linked benzothiazole inhibitors of endothelial lipase” (BRISTOL-MYERS SQUIBB COMPANY, priority 2014, dated 2019).)
